Measured values: BindingDB's records for doi:10.1016/j.ejmech.2016.09.002 (King Fahd University of Petroleum and Minerals, 2016)

Test: Inhibition of recombinant GGT1 (unknown origin) using GGPP as substrate preincubated for 5 mins followed by protein addition measured over 20 mins by fluorescence assay
An IC50 of 22.9 µM was found for `CSCCc1c(-c2cccnc2)nn(-c2ccc(Cl)c(Cl)c2)c1OCCCNC(=O)[C@H](Cc1ccccc1)NC(C)=O` in this work.

Test: as above
Remark: another data set of the same source
An IC50 of 9.9 µM was found for `COc1ccc(C[C@H](NS(C)(=O)=O)C(=O)NCCCOc2c(CCSC)c(-c3cccnc3)nn2-c2ccc(Cl)c(Cl)c2)cc1` in this work. An IC50 of 3.1 µM was found for `COc1ccc(C[C@H](NC(=O)CCCOc2c(CCSC)c(-c3cccnc3)nn2-c2ccc(Cl)c(Cl)c2)C(N)=O)cc1` in this work. In the case of `CSCCc1c(-c2cccnc2)nn(-c2ccc(Cl)c(Cl)c2)c1OCCCNC(=O)[C@H](Cc1cccnc1)NC(C)=O`, the IC50 is reported as > 50 µM. An IC50 of 31.9 µM was found for `CSCCc1c(-c2cccnc2)nn(-c2ccc(Cl)c(Cl)c2)c1OCCCNC(=O)[C@H](Cc1ccccc1)NS(C)(=O)=O` in this work. An IC50 of 19.7 µM was found for `CSCCc1c(-c2cccnc2)nn(-c2ccc(Cl)c(Cl)c2)c1OCCCNC(=O)[C@H](Cc1ccc(F)cc1)NS(C)(=O)=O` in this work. With `CSCCc1c(-c2cccnc2)nn(-c2ccc(Cl)c(Cl)c2)c1OCCCNC(=O)[C@H](Cc1cccnc1)NS(C)(=O)=O` the IC50 was > 50 µM. An IC50 of 7.8 µM was found for `CSCCc1c(-c2cccnc2)nn(-c2ccc(Cl)c(Cl)c2)c1OCCCC(=O)N[C@@H](Cc1ccncc1)C(N)=O` in this work. An IC50 of 34.8 µM was found for `COc1ccc(C[C@H](NC(C)=O)C(=O)NCCCOc2c(CCSC)c(-c3cccnc3)nn2-c2ccc(Cl)c(Cl)c2)cc1` in this work. An IC50 of 2.4 µM was found for `CSCCc1c(-c2cccnc2)nn(-c2ccc(Cl)c(Cl)c2)c1OCCCC(=O)N[C@@H](Cc1ccc(F)cc1)C(N)=O` in this work. An IC50 of 11.6 µM was found for `CSCCc1c(-c2cccnc2)nn(-c2ccc(Cl)c(Cl)c2)c1OCCCC(=O)N[C@@H](Cc1cccnc1)C(N)=O` in this work. An IC50 of 3.3 µM was found for `CSCCc1c(-c2cccnc2)nn(-c2ccc(Cl)c(Cl)c2)c1OCCCC(=O)N[C@@H](Cc1ccccc1)C(N)=O` [N-[(S)-1-carbamoyl-2-phenylethyl]-4-[2-(3,4-di-chlorophenyl)-4-(2-methylsulfanylethyl)-5-pyridin-3-yl-2-H-pyrazol-3-yloxy]butyramide] in this work.
